{"source": "ChEMBL document CHEMBL5614376", "about": "“Discovery of MT-1207: A Novel, Potent Multitarget Inhibitor as a Promising Clinical Candidate for the Treatment of Hypertension” (J Med Chem, 2024)", "key": {"[1]": {"target": "T1, 5-hydroxytryptamine receptor 2A (Homo sapiens, UniProt P28223)", "T1 sequence (P28223 whole entry)": "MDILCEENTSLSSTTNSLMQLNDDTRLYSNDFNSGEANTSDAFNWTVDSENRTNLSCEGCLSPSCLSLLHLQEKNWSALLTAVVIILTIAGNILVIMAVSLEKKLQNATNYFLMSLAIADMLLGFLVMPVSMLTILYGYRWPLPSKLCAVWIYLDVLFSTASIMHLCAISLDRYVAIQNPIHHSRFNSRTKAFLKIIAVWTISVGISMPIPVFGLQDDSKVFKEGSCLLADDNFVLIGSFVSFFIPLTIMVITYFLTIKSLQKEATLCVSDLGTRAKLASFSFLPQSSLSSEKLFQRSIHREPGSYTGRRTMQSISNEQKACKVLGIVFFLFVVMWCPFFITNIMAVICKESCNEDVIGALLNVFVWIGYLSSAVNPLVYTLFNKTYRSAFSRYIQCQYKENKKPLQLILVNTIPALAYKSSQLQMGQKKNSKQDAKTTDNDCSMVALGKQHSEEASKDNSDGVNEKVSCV", "assay": "Displacement of [3H]Ketanserin from recombinant human 5-HT2A receptor extracted from CHO cell membrane at 10 nM incubated for 60 mins by radioligand binding assay relative to control", "type": "cell membranes", "conditions": "filed as antagonist"}, "[2]": {"target": "T1, 5-hydroxytryptamine receptor 2A", "assay": "Displacement of [3H]Ketanserin from recombinant human 5-HT2A receptor extracted from CHO cell membrane incubated for 60 mins by radioligand binding assay", "type": "cell membranes"}, "[3]": {"assay": "Plasma protein binding in Cynomolgus monkey at 0.1 uM incubated for 30 mins", "type": "ADME, cell-free, Macaca fascicularis", "conditions": "read-out: PPB (converted)"}, "[4]": {"assay": "Plasma protein binding in Cynomolgus monkey at 10 uM incubated for 30 mins", "type": "ADME, cell-free, Macaca fascicularis", "conditions": "read-out: PPB (converted)"}, "[5]": {"assay": "Plasma protein binding in human at 0.1 uM incubated for 30 mins", "type": "ADME, cell-free", "conditions": "read-out: PPB (converted)"}, "[6]": {"assay": "Metabolic stability in human plasma assessed as enzymatic hydrolysis at 50 to 10000 ng/ml incubated upto 120 mins", "type": "ADME, cell-free", "conditions": "2 h, dose 50-10000 ng/ml"}, "[7]": {"assay": "Metabolic stability in macaque liver microsomes assessed as drug elimination at 10 umol/L incubated for 5 mins in presence of NADPH by LC-MS/MS analysis", "type": "ADME, Microsome", "conditions": "macaca, 10 µM, dose 10 µmol/L"}, "[8]": {"assay": "Metabolic stability in Beagle dog liver microsomes assessed as compound remaining at 10 umol/L incubated upto 120 mins in presence of NADPH by LC-MS/MS analysis", "type": "ADME, Canis lupus familiaris, Microsome", "conditions": "dose 10 µmol/L, read-out: Stability"}, "[9]": {"assay": "Cmax in Sprague-Dawley rat at 1 mg/kg, iv measured for 24 hrs by UPLC/MS/MS analysis", "type": "ADME, organism-based", "conditions": "in vivo"}, "[10]": {"assay": "Tmax in Sprague-Dawley rat at 1 mg/kg, po measured for 24 hrs by UPLC/MS/MS analysis", "type": "ADME, organism-based", "conditions": "in vivo"}, "[11]": {"assay": "AUC (0 to t) in Sprague-Dawley rat at 1 mg/kg, po measured for 24 hrs by UPLC/MS/MS analysis", "type": "ADME, organism-based", "conditions": "in vivo"}, "[12]": {"assay": "Apparent volume of distribution during terminal phase in Sprague-Dawley rat at 1 mg/kg, po measured for 24 hrs by UPLC/MS/MS analysis", "type": "ADME, organism-based", "conditions": "in vivo, read-out: Vz/F"}, "[13]": {"assay": "Half life in Sprague-Dawley rat at 3 mg/kg, po measured for 24 hrs by UPLC/MS/MS analysis", "type": "ADME, organism-based", "conditions": "in vivo"}, "[14]": {"assay": "Apparent oral clearance in Sprague-Dawley rat at 3 mg/kg, po measured for 24 hrs by UPLC/MS/MS analysis", "type": "ADME, organism-based", "conditions": "in vivo"}, "[15]": {"assay": "Oral bioavailability in Sprague-Dawley rat at 9 mg/kg measured for 24 hrs by UPLC/MS/MS analysis", "type": "ADME, organism-based", "conditions": "in vivo"}, "Rattus norvegicus [16]": {"system": "Rattus norvegicus", "assay": "Antihypertensive activity in 2K2C renovascular hypertensive Sprague-Dawley rat model assessed as systolic blood pressure at 10 mg/kg, po measured after 9 weeks (Rvb ~ 202 mmHg)", "type": "functional"}, "Rattus norvegicus [17]": {"system": "Rattus norvegicus", "assay": "Effect on serum creatinine level in 2K2C renovascular hypertensive Sprague-Dawley rat model at 10 mg/kg, po measured after 9 weeks by biochemical analysis", "type": "functional, organism-based"}, "Rattus norvegicus [18]": {"system": "Rattus norvegicus", "assay": "Effect on postural hypotension in Sprague-Dawley rat assessed as change in systolic blood pressure at 2.5 mg/kg, po treated for >30 mins followed by induction of postural hypotension measured 3 secs after postural change (reference value: 124 +/- 10 mmHg)", "type": "functional", "conditions": "time > 30.05 min, 0.5008 h"}, "Rattus norvegicus [19]": {"system": "Rattus norvegicus", "assay": "Effect on postural hypotension in Sprague-Dawley rat assessed as change in systolic blood pressure at 5 mg/kg, po treated for >30 mins followed by induction of postural hypotension measured 3 secs after postural change (reference value: 124 +/- 10 mmHg)", "type": "functional", "conditions": "time > 30.05 min, 0.5008 h"}, "Rattus norvegicus [20]": {"system": "Rattus norvegicus", "assay": "Effect on postural hypotension in Sprague-Dawley rat assessed as change in systolic blood pressure at 2.5 mg/kg, po treated for >30 mins followed by induction of postural hypotension measured 5 secs after postural change (reference value: 126 +/- 12 mmHg)", "type": "functional", "conditions": "time > 30.08 min, 0.5013 h"}, "Rattus norvegicus [21]": {"system": "Rattus norvegicus", "assay": "Effect on postural hypotension in Sprague-Dawley rat assessed as change in systolic blood pressure at 10 mg/kg, po treated for >30 mins followed by induction of postural hypotension measured 5 secs after postural change (reference value: 126 +/- 12 mmHg)", "type": "functional", "conditions": "time > 30.08 min, 0.5013 h"}, "Rattus norvegicus [22]": {"system": "Rattus norvegicus", "assay": "Effect on postural hypotension in Sprague-Dawley rat assessed as change in systolic blood pressure at 2.5 mg/kg, po treated for >30 mins followed by induction of postural hypotension measured 20 secs after postural change (reference value: 129 +/- 11 mmHg)", "type": "functional", "conditions": "time > 30.33 min, 0.5055 h"}, "Rattus norvegicus [23]": {"system": "Rattus norvegicus", "assay": "Effect on postural hypotension in Sprague-Dawley rat assessed as change in systolic blood pressure at 5 mg/kg, po treated for >30 mins followed by induction of postural hypotension measured 40 secs after postural change (reference value: 128 +/- 11 mmHg)", "type": "functional", "conditions": "time > 30.67 min, 0.5112 h"}, "Rattus norvegicus [24]": {"system": "Rattus norvegicus", "assay": "Effect on postural hypotension in Sprague-Dawley rat assessed as change in systolic blood pressure at 2.5 mg/kg, po treated for >30 mins followed by induction of postural hypotension measured 60 secs after postural change (reference value: 127 +/- 10 mmHg)", "type": "functional", "conditions": "time > 31 min"}, "Rattus norvegicus [25]": {"system": "Rattus norvegicus", "assay": "Effect on postural hypotension in Sprague-Dawley rat assessed as change in systolic blood pressure at 5 mg/kg, po treated for >30 mins followed by induction of postural hypotension measured 60 secs after postural change (reference value: 127 +/- 10 mmHg)", "type": "functional", "conditions": "time > 31 min"}, "[26]": {"assay": "Acute toxicity in Sprague-Dawley rat assessed as unscheduled animal fatality at 250 to 1000 mg/kg, po single administration measured for 14 days", "type": "organism-based", "conditions": "in vivo, 336 h, dose 250-1000 mg/kg, time 14 day"}, "[27]": {"assay": "Toxicity in male Sprague-Dawley rat assessed as reduction in body weight at 100 mg/kg, po qd treated for 4 days consecutively", "type": "organism-based", "parameters": "scale not given: the % may be the effect or the level left", "conditions": "in vivo, 96 h, time 4 day"}, "[28]": {"assay": "Tmax in male Sprague-Dawley rat at 10 mg/kg, po measured on day 1 by UP/LC/MS/MS analysis", "type": "ADME, organism-based", "conditions": "in vivo, time 1 day"}, "[29]": {"assay": "Cmax in male Sprague-Dawley rat at 10 mg/kg, po measured on day 1 by UP/LC/MS/MS analysis", "type": "ADME, organism-based", "conditions": "in vivo, time 1 day"}, "[30]": {"assay": "AUC (0 to t) in female Sprague-Dawley rat at 100 mg/kg, po measured on day 1 by UP/LC/MS/MS analysis", "type": "ADME, organism-based", "conditions": "in vivo, time 1 day"}, "[31]": {"assay": "Tmax in female Sprague-Dawley rat at 10 mg/kg, po qd treated for 13 weeks consecutively measured after recovery period on day 91 by UP/LC/MS/MS analysis", "type": "ADME, organism-based", "conditions": "in vivo, time 91 day"}, "[32]": {"assay": "Cmax in female Sprague-Dawley rat at 30 mg/kg, po qd treated for 13 weeks consecutively measured after recovery period on day 91 by UP/LC/MS/MS analysis", "type": "ADME, organism-based", "conditions": "in vivo, time 91 day"}, "[33]": {"assay": "AUC (0 to t) in male Sprague-Dawley rat at 10 mg/kg, po qd treated for 13 weeks consecutively measured after recovery period on day 91 by UP/LC/MS/MS analysis", "type": "ADME, organism-based", "conditions": "in vivo, time 91 day"}, "[34]": {"assay": "AUC (0 to t) in female Sprague-Dawley rat at 30 mg/kg, po qd treated for 13 weeks consecutively measured after recovery period on day 91 by UP/LC/MS/MS analysis", "type": "ADME, organism-based", "conditions": "in vivo, time 91 day"}}, "note": "The source made the active and inactive calls. The rule behind the calls is not given here."}
{"smiles": "Cl.c1ccc2c(c1)nnn2CCCCN1CCN(c2nsc3ccccc23)CC1", "values": [{"measurement": "inhibition", "setting": "[1]", "result": 96, "unit": "%"}, {"measurement": "IC50", "setting": "[2]", "result": 0.27, "unit": "nM"}, {"measurement": "Ki", "setting": "[2]", "result": 0.079, "unit": "nM"}, {"measurement": "fraction unbound at 0.5 h, 0.1 µM", "setting": "[3]", "result": 0.015}, {"measurement": "fraction unbound at 0.5 h, 10 µM", "setting": "[4]", "result": 0.005}, {"measurement": "fraction unbound at 0.5 h, 0.1 µM", "setting": "[5]", "result": 0.003}, {"measurement": "Stability", "setting": "[6]", "result": "Stable"}, {"measurement": "Drug excretion", "setting": "[7]", "result": "Active"}, {"measurement": "remaining at 2 h, 10 µM", "setting": "[8]", "result": 6.04, "unit": "%"}, {"measurement": "Cmax", "setting": "[9]", "result": 468, "unit": "ng/mL"}, {"measurement": "Tmax", "setting": "[10]", "result": 9.6, "unit": "min"}, {"measurement": "AUC(0-t) at 24 h", "setting": "[11]", "result": 51.7, "unit": "ng·h/mL"}, {"measurement": "Vd/F", "setting": "[12]", "result": 51.5, "unit": "L"}, {"measurement": "half-life", "setting": "[13]", "result": 2.15, "unit": "h"}, {"measurement": "CL/F", "setting": "[14]", "result": 130, "unit": "mL/min"}, {"measurement": "bioavailability", "setting": "[15]", "result": 15.3, "unit": "%"}, {"measurement": "Activity", "setting": "Rattus norvegicus [16]", "result": 169, "unit": "mmHg"}, {"measurement": "Activity", "setting": "Rattus norvegicus [17]", "result": "Active"}, {"measurement": "Activity", "setting": "Rattus norvegicus [18]", "result": 90, "unit": "mmHg"}, {"measurement": "Activity", "setting": "Rattus norvegicus [19]", "result": 80, "unit": "mmHg"}, {"measurement": "Activity", "setting": "Rattus norvegicus [20]", "result": 89, "unit": "mmHg"}, {"measurement": "Activity", "setting": "Rattus norvegicus [21]", "result": 81, "unit": "mmHg"}, {"measurement": "Activity", "setting": "Rattus norvegicus [22]", "result": 91, "unit": "mmHg"}, {"measurement": "Activity", "setting": "Rattus norvegicus [23]", "result": 83, "unit": "mmHg"}, {"measurement": "Activity", "setting": "Rattus norvegicus [24]", "result": 93, "unit": "mmHg"}, {"measurement": "Activity", "setting": "Rattus norvegicus [25]", "result": 83, "unit": "mmHg"}, {"measurement": "Activity", "setting": "[26]", "result": "Non-Toxic"}, {"measurement": "Activity", "setting": "[27]", "result": "~ 5.4%"}, {"measurement": "Tmax", "setting": "[28]", "result": 1, "unit": "h"}, {"measurement": "Cmax", "setting": "[29]", "result": 19.2, "unit": "ng/mL"}, {"measurement": "AUC(0-t) at 24 h", "setting": "[30]", "result": 7910, "unit": "ng·h/mL"}, {"measurement": "Tmax", "setting": "[31]", "result": 1, "unit": "h"}, {"measurement": "Cmax", "setting": "[32]", "result": 333, "unit": "ng/mL"}, {"measurement": "AUC(0-t) at 2184 h", "setting": "[33]", "result": 112, "unit": "ng·h/mL"}, {"measurement": "AUC(0-t) at 2184 h", "setting": "[34]", "result": 1470, "unit": "ng·h/mL"}]}
